Assay results published in patent publication US8013006B2.
Read-outs that look alike come from different tables or passages of the source.

Assays:
HCV replicon = assay: microbe, parasite or virus in culture; type: cell-based
wild-type poliovirus = type: cell-based; settings: Hela cells, MOI 0.1, one day; for WT-PV CPE (1 μM)*: 1 μM compound; for WT-PV CPE (10 μM)*: 10 μM compound; for WT-PV CPE (100 μM) *: 100 μM compound
[1] = system: cap-dependent translation; assay: Western blot of Fluc reporter protein in pLuc cells; type: cell-based, human; settings: 20 hours
[2] = Replicon IC50 values are determined by firefly luciferase signal, bicistronic replicon, 2 days, read-out: Replicon IC5Os
[3] = Hepatitis C virus, 48 h, read-out: Replicon IC5Os μM

SMILES: COc1ccc(-n2cc(C#N)c3ccc(OC)cc32)cc1 [Compound 4]
- IC50 (HCV replicon; [2]): > 2 µM
- WT-PV CPE (1 μM)* (wild-type poliovirus): 1
- WT-PV CPE (10 μM)* (wild-type poliovirus): 2
- WT-PV CPE (100 μM) * (wild-type poliovirus): 3

SMILES: CCn1cc(C#N)c2ccc(OC(C)C)cc21 [Compound 10]
- IC50 (HCV replicon; [2]): > 2 µM
- WT-PV CPE (1 μM)* (wild-type poliovirus): 2
- WT-PV CPE (10 μM)* (wild-type poliovirus): 2
- WT-PV CPE (100 μM) * (wild-type poliovirus): 3

SMILES: CCn1c(-c2ccc(OC)cc2)c(C#N)c2ccc(OC)cc21 [Compound 19]
- IC50 (HCV replicon; [2]): > 2 µM
- WT-PV CPE (1 μM)* (wild-type poliovirus): 1
- WT-PV CPE (10 μM)* (wild-type poliovirus): 2
- WT-PV CPE (100 μM) * (wild-type poliovirus): 3

SMILES: COc1ccc2c(C#N)c(C)n(-c3ccc4c(c3)OCO4)c2c1 [Compound 24]
- IC50 (HCV replicon; [2]): 0.5 to 2 µM
- WT-PV CPE (1 μM)* (wild-type poliovirus): 2
- WT-PV CPE (10 μM)* (wild-type poliovirus): 2
- WT-PV CPE (100 μM) * (wild-type poliovirus): 3

SMILES: CCCn1c(-c2ccc(NS(=O)(=O)CCCCl)cc2)c(C#N)c2ccc(OC)cc21 [Compound 850]
- IC50 (HCV replicon; [3]): 0.5 to 2 µM
- melting point: 179 to 180 °C

SMILES: CCCn1c(-c2ccc(NS(=O)(=O)C3CC3)cc2)c(C#N)c2ccc(OC)cc21 [Compound 851]
- IC50 (HCV replicon; [3]): 0.5 to 2 µM
- melting point: 186 to 187 °C

SMILES: CCn1c(-c2ccc(NC(=O)C3CCC3)cc2)c(C#N)c2cc(OC)ccc21 [Compound 859]
- IC50 (HCV replicon; [3]): 0.5 to 2 µM
- melting point: 191 to 192 °C

SMILES: COc1ccc(C[C@H](N)C(=O)N[C@H]2[C@@H](O)[C@H](n3cnc4c(N(C)C)ncnc43)O[C@@H]2CO)cc1 [puromycin]
- luciferase reporter protein level (cap-dependent), Western blot [1]: inhibited
